Consider twelve molecules from ChEMBL document CHEMBL1201862, “PubChem BioAssay data set” (2004).

What all share (assay): NCI-60 cell line screen, 48 h
Test [1] relates to NCI-H522.
In test [2] the test system is RPMI-8226.
The test system of test [3] is COLO 205.
In test [4] the test system is HCC 2998.
For test [5], the system named is HCT-15.
Test [6] deals with K562.
For test [7], the system named is SW-620.
Test [8] deals with OVCAR-5.
Test [9] concerns A498.
For test [10], the system named is KM12.
For test [11], the system named is UACC-62.
Test [12] deals with SN12C.
For test [13], the system named is TK-10.
The subject of test [14] is U-251.
Test [15] relates to UO-31.
For test [16], the system named is A549.
The test system of test [17] is MDA-MB-231.
For test [18], the system named is PC-3.
The subject of test [19] is MCF7.

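How tested: cells in 96-well plates exposed to compound for 48 hours at five concentrations. At the GI50, growth is halved.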 The source made the active and inactive calls. Rule as the data show it: active = GI50 up to about 1.1 µM and inactive = higher.

Regarding `COc1ccc2c(c1)CC1c3c(cc4c(c3-2)OCO4)CCN1C` (stereo not drawn), the GI50 in test [1] is 15.6 µM (inactive); in [2] it was 24.8 µM (inactive); in [3], 15.8 µM (inactive); in test [4], 41.1 µM (inactive); in test [5] it was 36.9 µM; in [6], 23.3 µM (inactive). The GI50 in test [7] is 19.5 µM (inactive); in test [8], 30.1 µM (inactive); in test [9], 14.4 µM (inactive); in test [10], 30.9 µM (inactive); in [11], 21.6 µM (inactive); in [12], 33.3 µM (inactive). Further, the GI50 in [13] is 21.1 µM (inactive); in [14], 31.6 µM (inactive); in [15], 14 µM (inactive); in test [16] it was 21.4 µM (inactive).
With `COC(=O)C1C=NNC1C(=O)OC` (stereo not drawn), the GI50 in [1] is > 100 µM (inactive); in [2], > 100 µM (inactive); in test [3], > 100 µM (inactive); in [4], > 100 µM (inactive); in test [5], > 100 µM; in test [6], > 100 µM (inactive). Further, the GI50 in test [7], in [8], in test [9], in test [10], in test [11] and in test [12] was > 100 µM (inactive) each time. Moreover, the GI50 in test [13], in [14], in test [15] and in test [16] was > 100 µM (inactive) each time.
`O=C(O)CSc1nnc(-c2ccccc2)[nH]1`: the GI50 in test [1] was > 100 µM (inactive); in test [2] it was > 100 µM (inactive); in [3] it was > 100 µM (inactive); in test [4] it was > 100 µM (inactive); in [5], > 100 µM; in test [6], > 100 µM (inactive). Moreover, the GI50 in [7], in test [8], in [9], in test [10], in [11] and in test [12] was > 100 µM (inactive) throughout. In addition, the GI50 in test [13], in test [14], in test [15] and in test [16] was > 100 µM (inactive) each time.
Turning to `CCOc1ccc(/N=N/c2ccc3oc(=O)c(C(=O)Nc4ccc(OC)cc4)cc3c2)cc1`, the GI50 is 21.8 µM (inactive) in [1]; 11.1 µM (inactive) in test [2]; 47.9 µM (inactive) in test [3]; 10.8 µM (inactive) in test [4]; 6.12 µM in test [5]; 8.38 µM (inactive) in test [6]. For the same molecule, the GI50 in test [7] was 18.5 µM (inactive); in test [8], 32 µM (inactive); in test [9], 4.22 µM (inactive); in test [10] it was 30.8 µM (inactive); in test [11], 11.7 µM (inactive); in [12], 18 µM (inactive). Besides, the GI50 is 17.1 µM (inactive) in test [13], 14.1 µM (inactive) in test [14], 5.57 µM (inactive) in [15] and 40.1 µM (inactive) in test [16].
For `CC(=O)Nc1ccc(C(=O)NN2C(=O)C(Cl)C2c2ccc(Cl)cc2)cc1` (stereo not drawn), the GI50 in test [17] is 22.1 µM (inactive); in test [1] it was 38.8 µM (inactive); in [2] it was > 100 µM (inactive); in [3] it was > 100 µM (inactive); in test [4] it was > 100 µM (inactive); in [5] it was > 100 µM. Further, the GI50 is > 100 µM (inactive) in test [6]; > 100 µM (inactive) in test [7]; > 74.3 µM (inactive) in [8]; > 100 µM (inactive) in test [18]; > 100 µM (inactive) in test [10]; > 100 µM (inactive) in test [11]. For the same molecule, the GI50 is 39.6 µM (inactive) in test [12]; > 100 µM (inactive) in test [13]; 23.9 µM (inactive) in test [14]; > 100 µM (inactive) in [19]; > 100 µM (inactive) in test [15]; > 72.4 µM (inactive) in test [16].
Take `CN(C(=O)C1CC1)C1C2CN3CCC(O2)C13` (stereo not drawn): the GI50 in test [1] is > 100 µM (inactive); in [2], > 100 µM (inactive); in test [3], > 100 µM (inactive); in [4], > 100 µM (inactive); in [5], > 100 µM; in test [6] it was > 100 µM (inactive). The GI50 in test [7], in test [8], in test [9], in test [10], in test [11] and in [12] was > 100 µM (inactive) each time. The GI50 in [13], in test [14], in test [15] and in test [16] was > 100 µM (inactive) each time.
In the case of `COC(=O)/C(C#N)=C1\NN=NN1CCCN1CCOCC1`, the GI50 was > 100 µM (inactive) in test [1]; > 100 µM (inactive) in [2]; > 100 µM (inactive) in test [3]; > 100 µM (inactive) in test [4]; > 100 µM in [5]; > 100 µM (inactive) in [6]. The GI50 in [7], in test [9], in test [10], in test [11], in test [12] and in test [13] was > 100 µM (inactive) throughout. For the same molecule, the GI50 in test [14], in test [15] and in [16] was > 100 µM (inactive) throughout.
Take `C1CC2=C(C1)C1=S(S2)SC2=C1CCC2`: the GI50 in test [1] was > 100 µM (inactive); in [2] it was > 100 µM (inactive); in [3], > 100 µM (inactive); in test [4], > 100 µM (inactive); in test [5] it was > 100 µM; in test [6], > 100 µM (inactive). The GI50 in test [7] was > 100 µM (inactive); in test [8], > 100 µM (inactive); in test [9] it was 10.7 µM (inactive); in test [10], > 100 µM (inactive); in [11], > 100 µM (inactive); in test [12], > 100 µM (inactive). Moreover, the GI50 in test [13], in test [14], in [15] and in test [16] was > 100 µM (inactive) in each case.
For `CCOC(=O)c1c(C(F)(F)F)oc2c1ccc1nc3nonc3nc12`, the GI50 is 15.1 µM (inactive) in test [1]; 6.07 µM (inactive) in test [2]; 24.2 µM (inactive) in [3]; 24.9 µM (inactive) in test [4]; 17.3 µM in test [5]; 2.67 µM (inactive) in test [6]. For the same molecule, the GI50 in [7] was 16.8 µM (inactive); in test [8], 17.2 µM (inactive); in [9] it was 16.7 µM (inactive); in [10] it was 19.3 µM (inactive); in test [11] it was 15 µM (inactive); in [12], 17.4 µM (inactive). The GI50 is 19.4 µM (inactive) in test [13], 15.7 µM (inactive) in test [14], 19.2 µM (inactive) in test [15] and 18 µM (inactive) in test [16].
For `CCCCC1CC(c2cccc([N+](=O)[O-])c2)=NO1` (stereo not drawn), the GI50 in test [1] is 29.5 µM (inactive); in test [2] it was 74.3 µM (inactive); in test [3], > 100 µM (inactive); in test [4] it was 58.5 µM (inactive); in test [5], > 100 µM; in [6], 60.8 µM (inactive). Also, the GI50 in test [7] is > 100 µM (inactive); in [8] it was > 100 µM (inactive); in [9] it was 49.2 µM (inactive); in [10], > 100 µM (inactive); in [11] it was 54.8 µM (inactive); in test [12] it was > 100 µM (inactive). The GI50 was > 100 µM (inactive) in test [13], 83.2 µM (inactive) in [14], 50.9 µM (inactive) in test [15] and 30.5 µM (inactive) in [16].
Regarding `COc1nc(NC2OCC(OC(C)=O)C(OC(C)=O)C2OC(C)=O)c(/N=C\C=N\c2c(NC3OCC(OC(C)=O)C(OC(C)=O)C3OC(C)=O)nc(OC)n(C)c2=O)c(=O)n1C` (stereo not drawn), the GI50 in test [1] was > 100 µM (inactive); in test [2], > 100 µM (inactive); in test [3] it was > 100 µM (inactive); in test [4], > 100 µM (inactive); in test [5], > 100 µM; in test [6], > 100 µM (inactive). For the same molecule, the GI50 in [7], in test [8], in test [9], in [10], in [11] and in [12] was > 100 µM (inactive) each time. Moreover, the GI50 in test [13], in test [14], in [15] and in test [16] was > 100 µM (inactive) throughout.
On to `CN(/N=C/c1ccnc2ccccc12)c1ccc([N+](=O)[O-])cc1[N+](=O)[O-]`, for which the GI50 was > 100 µM (inactive) in test [1]; > 100 µM (inactive) in test [2]; > 100 µM (inactive) in [3]; > 100 µM (inactive) in [4]; > 100 µM in [5]; > 100 µM (inactive) in test [6]. Further, the GI50 in [7], in [8], in test [9], in [10], in [11] and in test [12] was > 100 µM (inactive) in each case. For the same molecule, the GI50 in test [13], in test [14], in [15] and in test [16] was > 100 µM (inactive) in each case.
